Assay results published in paper PMC2074382 (British Journal of Cancer, 1996).
“And” between values parts separate entries of the source, which are not always exact repeats. Identical values can stand only once. Counter-ions that a name gives are not always drawn.

Assay: Pharmacokinetics (lactone form, HPLC, non-compartmental) in plasma and urine, days 1 and 4 of first course
Details: for fe, fraction of the drug excreted unchanged / Clr, renal clearance: Table VI
Text: British Journal of Cancer (1996) 73, 744-750 O (C? 1996 Stockton Press All rights reserved 0007-0920/96 $12.00 Phase I and pharmacological study of the new topoisomerase I inhibitor G1147211, using a daily x 5 intravenous administration CJH Gerrits', GJ Creemers', JHM Schellens', P Wissel2, AS Th Planting', R Kunka2, K Selinger2, M de Boer-Dennert', Y Marijnen3, M Harteveld' and J Verweijl 'Department of Medical Oncology, Rotterdam Cancer Institute, Rotterdam, The Netherlands; 2Glaxo Wellcome Inc, Department of Clinical Pharmacology, NC, USA; 3Glaxo Wellcome Inc, Department of Clinical Research, Zeist, The Netherlands. Summary Topoisomerase I inhibitors are interesting anti-cancer agents with a novel mechanism of action. […] In subsequent patient cohorts the dose was escalated from 0.3 to 1.5 mg m-2 day-'. Pharmacokinetics analysis was performed on days 1 and 4 of the first course using a validated high- performance liquid chromatographic assay and non-compartmental methods. […] Its further development was stopped because of unpredictable and severe myelosuppression, gastrointestinal toxicity and haemorrhagic cystitis. In the late 1980s two discoveries brought about a renewal of interest in CPT; firstly, topoisomerase I was identified as the single cellular target of CPT (Hsiang et al., 1985; Hsiang and Liu, 1988) and, secondly, an overexpression of topoisomerase I was found in various tumour cell lines but not in normal tissues (Giovanella et al., 1989; Hirabayaski et al., 1992; Potmesil et al., 1988). Topoisomerase I is a nuclear enzyme that resolves topological problems of the torsionally strained (supercoiled) DNA (Slichenmyer et al., 1993). This is achieved by forming a covalent adduct between topoisome- rase I and the DNA, termed the cleavable complex. This catalytic intermediate creates single-strand DNA breaks, allowing the DNA molecule to rotate around the intact DNA strand at the cleavage site, leading to a relaxation of the DNA molecule and in this way replication, transcription and other DNA functions can proceed. These enzyme- bridged breaks are then resealed by topoisomerase I. CPT stabilises the cleavable complexes, thereby preventing resealing of single-strand DNA breaks in the presence of the drug (Covey et al., 1989; D'Arpa and Liu, 1989; Eng et al., 1988). Cytotoxicity is specific to the S-phase of the cell cycle because the double-strand breaks that occur during this phase are more difficult to repair in the presence of the drug (Horwitz and Horwitz, 1973). […] Other eligibility criteria included: (1) age>, 18 years; (2) an Eastern Cooperative Oncology Group (ECOG) performance status <2; (3) a predicted life expectancy of at least 3 months; (4) no previous anti-cancer therapy for at least 3 weeks (6 weeks for previous nitro- soureas or mitomycin C); (5) adequate haemato- poietic (WBC) 3 x 109 -', ANC > 1.5 x 109 1-' and platelets 100 x 10 1- 1), hepatic (bilirubin within normal limits, AST, ALT and/or alkaline phosphatase < 2.0 x normal), and renal (serum creatinine < 130 imol 1-') functions. All patients gave written informed consent.

[1] = 1.2 mg m-2, day 1, mean of dose level
[2] = 1.2 mg m-2, day 4, individual patients 7-12 in order
[3] = 1.2 mg m-2, day 4, mean of dose level
[4] = 1.5 mg m-2, day 1, individual patients 13, 15-18 in order
[5] = 1.5 mg m-2, day 1, individual patients 13-18 in order
[6] = 1.5 mg m-2, day 1, mean of dose level
[7] = 1.5 mg m-2, day 4, individual patients 13-18 in order
[8] = 1.5 mg m-2, day 4, mean of dose level
[9] = day 4, individual patients 1-3, 5-12, 16-18 in order

CC[C@@]1(O)C(=O)OCc2c1cc1n(c2=O)Cc2c-1nc1cc3c(cc1c2CN1CCN(C)CC1)OCCO3 [GI147211, [7 - (methylpiperazinomethylene) - 10,11 - ethylene-dioxy-20(S)] camptothecin dihydrochloride]
Cmax, mean [1]: 14.98 ng/mL | MRT, mean [1]: 3.47 h | Vdss, mean [1]: 203 l m-2 | t1/2, mean [1]: 3.45 h | tmax, mean [1]: 0.39 h | AUCinf [2]: 20.59 ng·h/mL and 37.83 ng·h/mL and 21.10 ng·h/mL and 14.84 ng·h/mL and 26.62 ng·h/mL and 16.96 ng·h/mL | Clearance, total plasma clearance [2]: 971 ml min-1 m-2 and 529 ml min-1 m-2 and 948 ml min-1 m-2 and 1348 ml min-1 m-2 and 802 ml min-1 m-2 and 1179 ml min-1 m-2 | Cmax [2]: 18.66 ng/mL and 20.03 ng/mL and 16.21 ng/mL and 9.62 ng/mL and 12.74 ng/mL and 11.63 ng/mL | MRT [2]: 3.06 h and 5.62 h and 3.47 h and 3.96 h and 7.06 h and 4.44 h | Vdss [2]: 163 l m-2 and 167 l m-2 and 182 l m-2 and 299 l m-2 and 307 l m-2 and 291 l m-2 | t1/2, elimination half-life [2]: 3.02 h and 4.07 h and 2.70 h and 2.20 h and 6.99 h and 4.99 h | tmax [2]: 0.25 h and 0.42 h (5×) | AUCinf, mean [3]: 22.99 ng·h/mL | Clearance, mean [3]: 963 ml min-1 m-2 | Cmax, mean [3]: 14.82 ng/mL | MRT, mean [3]: 4.60 h | Vdss, mean [3]: 235 l m-2 | t1/2, mean [3]: 3.99 h | tmax, mean [3]: 0.39 h | AUCinf [4]: 24.66 ng·h/mL and 24.39 ng·h/mL and 23.32 ng·h/mL and 22.64 ng·h/mL and 28.37 ng·h/mL | Clearance, total plasma clearance [4]: 1014 ml min-1 m-2 and 1025 ml min-1 m-2 and 1072 ml min-1 m-2 and 1104 ml min-1 m-2 and 881 ml min-1 m-2 | MRT [4]: 5.11 h and 3.57 h and 3.32 h and 3.65 h and 3.78 h | Vdss [4]: 296 l m-2 and 204 l m-2 and 197 l m-2 and 225 l m-2 and 186 l m-2 | t1/2, elimination half-life [4]: 4.98 h and 4.62 h and 4.37 h and 4.61 h and 4.42 h | Cmax [5]: 15.08 ng/mL and 27.48 ng/mL and 19.21 ng/mL and 19.53 ng/mL and 18.91 ng/mL and 15.90 ng/mL | tmax [5]: 0.25 h (3×) and 0.42 h (2×) and 0.75 h | AUCinf, mean [6]: 24.68 ng·h/mL | Clearance, mean [6]: 1019 ml min-1 m-2 | Cmax, mean [6]: 19.35 ng/mL | MRT, mean [6]: 3.89 h | Vdss, mean [6]: 222 l m-2 | t1/2, mean [6]: 4.60 h | tmax, mean [6]: 0.39 h | AUCinf [7]: 26.92 ng·h/mL and 29.51 ng·h/mL and 30.85 ng·h/mL and 34.51 ng·h/mL and 24.85 ng·h/mL and 52.70 ng·h/mL | Clearance, total plasma clearance [7]: 929 ml min-1 m-2 and 847 ml min-1 m-2 and 810 ml min-1 m-2 and 724 ml min-1 m-2 and 1006 ml min-1 m-2 and 474 ml min-1 m-2 | Cmax [7]: 20.02 ng/mL and 23.81 ng/mL and 25.41 ng/mL and 32.19 ng/mL and 21.18 ng/mL and 28.25 ng/mL | MRT [7]: 5.06 h and 2.56 h and 3.04 h and 4.47 h and 5.75 h and 4.74 h | Vdss [7]: 261 l m-2 and 117 l m-2 and 144 l m-2 and 178 l m-2 and 319 l m-2 and 126 l m-2 | t1/2, elimination half-life [7]: 4.95 h and 3.44 h and 4.35 h and 5.62 h and 5.82 h and 4.43 h | tmax [7]: 0.42 h (4×) and 0.25 h (2×) | AUCinf, mean [8]: 33.22 ng·h/mL | Clearance, mean [8]: 798 ml min-1 m-2 | Cmax, mean [8]: 25.14 ng/mL | MRT, mean [8]: 4.27 h | Vdss, mean [8]: 191 l m-2 | t1/2, mean [8]: 4.77 h | tmax, mean [8]: 0.36 h | relation of AUC to the dose (0.3-1.5 mg m-2, Figure 3 day 4 of course 1): linearly related to the dose | terminal half-life (abstract, all patients): 3.7 ± 1.2 h | total plasma clearance (abstract, all patients): 999 ± 184 mL/min | total plasma clearance, range (abstract, all patients): 640 to 1329 mL/min | volume of distribution (abstract, all patients): 190+/-461 m-2 | fraction of the drug excreted unchanged in the urine (fe) (day 1): 0.14 ± 0.07 | renal clearance (day 1): 140+74 ml min-1 m-2 | Clr, mean (day 1, Table VI): 251 ml min-1 and 140 ml min-1 m-2 | fe, mean (day 1, Table VI): 0.143 | Total plasma clearance (mean+s.d.) (day 1, all dose levels): 1014+ 177.0 ml min-1 m-2 | Vdss (mean+s.d.) (day 1, all dose levels): 193+ 45.9 l m-2 | mean residence time (MRT) (mean+s.d.) (day 1, all dose levels): 3.53+0.93 h | t1/2 (mean+s.d.) (day 1, all dose levels): 3.54+0.99 h | fe, fraction of the drug excreted unchanged (day 1, individual patients 1-12, 14, 15 in order): 0.114 and 0.081 and 0.212 and 0.115 and 0.156 and 0.149 and 0.106 and 0.101 and 0.088 and 0.085 and 0.116 and 0.347 and 0.191 and 0.135 | Clr, renal clearance (day 1, individual patients 1-12, 15 in order): 232 ml min-1 and 116 ml min-1 m-2 and 184 ml min-1 and 101 ml min-1 m-2 (2×) and 333 ml min-1 and 222 ml min-1 m-2 and 231 ml min-1 and 115 ml min-1 m-2 and 161 ml min-1 and 194 ml min-1 and 107 ml min-1 m-2 (2×) and 201 ml min-1 and 122 ml min-1 m-2 and 151 ml min-1 and 84 ml min-1 m-2 and 203 ml min-1 and 226 ml min-1 and 113 ml min-1 m-2 and 208 ml min-1 and 119 ml min-1 m-2 and 663 ml min-1 and 358 ml min-1 m-2 and 280 ml min-1 and 150 ml min-1 m-2 | Clr, mean (day 4, Table VI): 244 ml min-1 and 138 ml min-1 m-2 | Clr, renal clearance [9]: 175 ml min-1 and 88 ml min-1 m-2 and 128 ml min-1 and 70 ml min-1 m-2 and 430 ml min-1 and 287 ml min-1 m-2 and 192 ml min-1 and 120 ml min-1 m-2 and 225 ml min-1 and 123 ml min-1 m-2 and 196 ml min-1 and 119 ml min-1 m-2 and 212 ml min-1 and 118 ml min-1 m-2 and 241 ml min-1 and 127 ml min-1 m-2 and 344 ml min-1 and 172 ml min-1 m-2 and 314 ml min-1 and 179 ml min-1 m-2 and 459 ml min-1 and 248 ml min-1 m-2 and 218 ml min-1 and 128 ml min-1 m-2 and 182 ml min-1 and 91 ml min-1 m-2 and 101 ml min-1 and 59 ml min-1 m-2 | fe, fraction of the drug excreted unchanged [9]: 0.109 and 0.095 and 0.428 and 0.181 and 0.197 and 0.122 and 0.219 and 0.133 and 0.128 and 0.239 and 0.210 and 0.177 and 0.090 and 0.125
